According to patent publication US9139608B2 (priority 2010, dated 2015):
Marks after values point to notes of the source that are not given here.

Experiments:
[1] = Pharmacokinetic study: availability of test drug at site of action; format: in vivo; conditions: healthy rats, single oral dose 250 mg/kg, feces 0-24 h
Procedure: The blood samples were collected at 0, 0.25, 0.50, 1, 2, 3, 4, 5 and 6 hours after dosing. Plasma was obtained by centrifugation of blood at 7000 rpm for 15 min at 4° C. and kept at −20° C. until analysis was carried out. The animals were kept in the metabolic cages for collection of urine and feces.

TNBS induced IBD = test: TNBS induced colitis in rats; format: in vivo, Male Wistar rats
Source text: In addition, increased body weight, decreased ulcer index and myeloperoxidase activity in colon is seen.
The trinitrobenzenesulfonic acid (TNBS) induced colitis is one of the standard animal models used for IBD. In this model, a single intracolonic administration of TNBS damages the colonic epithelium and induces prolonged chronic inflammation.
Procedure: In this study, Male Wistar rats (280-291 g) were fasted for 48 hrs, and put under anaesthesia. A 3 mm diameter cannula was inserted into the anus to the depth of 8 cm and 25 mg of TNBS dissolved in 0.25 ml of 30% ethanol solution was injected to each rat. The rats were positioned tail up for 1 minute. […] A healthy control group receiving only saline but no TNBS was maintained. On day 11, each group of rats were sacrificed by cervical dislocation and the colon was isolated for physical examination. Colon samples were preserved in 10% neutral formalin solution for histopathological evaluation.

[2] = test system: acetic acid induced colitis; test: Acetic acid induced colitis in rats; format: in vivo, Male Wistar rats; conditions: 50 mg/kg p.o. once daily, pretreatment for 3 days, n = 6
Source text: The acetic-acid induced colitis is a model of IBD with a similarity of the inflammatory mediators to that of acute human intestinal inflammation.
Procedure: In this model, initial injury was an epithelial necrosis and edema that variably extended into the lamina propria, submucosa, or external muscle layers, depending of the concentrations and length of exposure to acetic acid. […] Rats were fasted for 24 hrs, anesthetized and a cannula that has 3 mm diameter was inserted into the anus to the depth of 8 cm for instilling 2 ml of 3% acetic acid into the colon for 30 s. After 24 hrs, animals were sacrificed by cervical dislocation, the colon was isolated and the parameters of colitis were measured. […] The reversal of acetic acid induced conditions such as increased colon weight and colon weight to length ratio, which indicated beneficial effects of test drugs on colitis. These effects were further confirmed by decrease in macroscopic lesion score and myeloperoxidase activity in colon tissues.

[3] = test system: H. pylori (ATCC 26695, strain MS-5); test: H. Pylori infected rats with NSAID induced ulcers (RUT and PCR); format: in vivo, Helicobacter Pylori
Naproxen induced ulcers = Naproxen induced ulcers in rats, prophylactic; format: in vivo, Male Wistar rats; conditions: then Naproxen 30 mg/kg p.o., n = 6
Source text: Gastric lesions induced by NSAIDS drugs such as Naproxen can aggravate inflammatory reactions in the GI tract.

histamine induced ulcers = test: Histamine (stress) induced ulcers in rats, prophylactic; format: in vivo, Male Wistar rats; conditions: then Histamine 300 mg/kg i.p., n = 6
Source text: Stress induced gastric lesion is a condition that can cause or aggravate inflammatory reactions in the GI tract.

ethanol induced ulcers = test: Ethanol induced ulcers in rats, prophylactic; format: in vivo, Male Wistar rats; conditions: then Ethanol 8 ml/kg p.o., n = 6
Procedure: Consumption of alcohol is another major factor resulting in gastric lesions.
The mean ulcer area in this study was measured to be 174.4 mm^2±5.814 mm^2 in the control group indicating the ulcerogenic effect of ethanol.

[4] = test system: inflammatory bowel disease; test: Prospective study in patients with IBD, patient reported outcome; format: in vivo, Humans; design: key to Bleeding, Patient Recorded Outcome / Frequent trips to the bathroom, Patient Recorded Outcome / Dependence on medication diarrhea and pain, Patient Recorded Outcome / Abdominal pain, Patient Recorded Outcome / Diarrhea, Patient Recorded Outcome: 0—Absence; 1—Mild; 2—Moderate; 3—Severe; conditions: 300 mg twice daily for 6 months; for Abdominal pain, Patient Recorded Outcome / Bleeding, Patient Recorded Outcome / Dependence on medication diarrhea and pain, Patient Recorded Outcome / Diarrhea, Patient Recorded Outcome / Frequent trips to the bathroom, Patient Recorded Outcome: IBD
Procedure: A prospective study to assess the efficacy of the test drug in patients with IBD was conducted.
Thereafter, the efficacy of the test drug was analyzed on the basis of patient reported outcome taken at the beginning and end of the study period. Observations: It was observed that all patients were experiencing relief from IBD related symptoms such as abdominal pain, diarrhea, rectal bleeding, fever, nausea and vomiting. It was further observed that there was significant improvement in bowel control which was seen from reduced frequency of visits to restrooms, dependence on diarrhoea medication and pain associated with bowel movement.

hemorrhoids = test: Prospective uncontrolled pilot study in patients with hemorrhoids, patient reported outcome; format: in vivo, Humans; conditions: for Bloody stool, Median Value of Patient Reported Outcome / Difficulty to sit or walk, Median Value of Patient Reported Outcome / Edema, Median Value of Patient Reported Outcome / Itching, Median Value of Patient Reported Outcome / Pain, Median Value of Patient Reported Outcome: hemorrhoids, n = 5, scale 0 - Absence to 5 - Severe
Procedure: A prospective uncontrolled pilot study to access the efficacy of the test drug in patients with hemorrhoids was conducted. […] The efficacy of the test drug was analyzed on the basis of patient reported outcome taken at the beginning and end of the study period. […] It was further observed that there was significant relief in pain and irritation associated with bowel movement by the end of the treatment period.

[5] = TNBS induced IBD in rats, 50 mg/kg p.o. once daily, 10 days of treatment, n = 6
[6] = colon, TNBS induced IBD in rats, 50 mg/kg p.o. once daily, 10 days of treatment, n = 6
[7] = rats pretreated with 30 mg/kg p.o.
[8] = rats pretreated with 60 mg/kg p.o.
[9] = rats pretreated with 120 mg/kg p.o.
[10] = After Treatment, 300 mg twice daily for 15 days

## C[C@H]1[C@H](C)CC[C@]2(C(=O)OC3O[C@H](CO[C@H]4O[C@H](CO)[C@@H](O[C@@H]5O[C@@H](C)[C@H](O)[C@@H](O)[C@H]5O)[C@H](O)[C@H]4O)[C@@H](O)[C@H](O)[C@H]3O)CC[C@]3(C)C(=CCC4[C@@]5(C)C[C@@H](O)[C@H](O)[C@@](C)(CO)[C@@H]5CC[C@]43C)[C@H]12 (stereo partly drawn) [Test Drug, Asiaticoside]
[1]
  drug recovered from fecal matter: about 81.42%
TNBS induced IBD; [5]
  Colon length: 14.14 ± 0.53 mm
  Colon weight: 1.71 ± 0.07 g
  Colon width: 0.73 ± 0.13 mm
TNBS induced IBD; TNBS induced IBD in rats, Day 0, before treatment, n = 6
  Body weight: 252.67 ± 3.121^ns1
TNBS induced IBD; TNBS induced IBD in rats, Day 11 (10 days of treatment), 50 mg/kg p.o. once daily, n = 6
  Body weight: 293.00 ± 0.84***^
TNBS induced IBD; TNBS induced IBD in rats, Normal (Day −2), before treatment, n = 6
  Body weight: 286.50 ± 3.14^ns1
TNBS induced IBD; TNBS induced IBD model, post treatment after TNBS administration
  rectal bleeding: significantly reduced after 3rd day
TNBS induced IBD; [6]
  Microscopic score: 4.40 ± 0.68
  Myeloperoxidase activity: 0.02 ± 0.0003 U/mg
[2]
  Colon length: 16.22 ± 0.63 mm
  Colon weight: 1.53 ± 0.10 g
  Colon width: 0.71 ± 0.05 mm
[2]; colon
  Microscopic score: 4.33 ± 0.71
  Myeloperoxidase activity: 0.02 ± 0.002 U/mg
[3]; H. Pylori infected rats with NSAID induced ulcers
  ulcer area: dose dependent and time dependent reduction
[3]; H. pylori infected rats with Naproxen induced ulcers, 120 mg/kg p.o. twice daily
  eradication of H. Pylori infection (RUT, PCR): not effective in H. Pylori eradication
[3]; H. pylori infected rats with Naproxen induced ulcers, 240 mg/kg p.o. once daily
  eradication of H. Pylori infection (RUT, PCR): not effective in H. Pylori eradication
[3]; H. pylori infected rats with Naproxen induced ulcers, 360 mg/kg p.o. once daily
  antibacterial action on H. Pylori infection: rapid antibacterial action on 3rd week
[3]; H. pylori infected rats with Naproxen induced ulcers, 360 mg/kg p.o. once daily, 9 weeks
  eradication of H. Pylori infection (RUT, PCR): eradication of H. Pylori infection in 9 weeks
Naproxen induced ulcers; [7]
  Area of Ulceration: 5.49 ± 0.212^ns mm^2
Naproxen induced ulcers; [8]
  Area of Ulceration: 4.52 ± 0.169**^ mm^2
Naproxen induced ulcers; [9]
  Area of Ulceration: 2.632 ± 0.146***^ mm^2
Histamine induced ulcers; [7]
  Area of Ulceration: 9.242 ± 0.415* mm^2
Histamine induced ulcers; [8]
  Area of Ulceration: 7.062 ± 0.362*** mm^2
Histamine induced ulcers; [9]
  Area of Ulceration: 4.598 ± 0.323*** mm^2
Ethanol induced ulcers; [7]
  Area of Ulceration: 159.3 ± 4.846* mm^2
Ethanol induced ulcers; [8]
  Area of Ulceration: 137.6 ± 4.069*** mm^2
Ethanol induced ulcers; [9]
  Area of Ulceration: 110.4 ± 2.305*** mm^2
[4]; Patient 1, After
  Abdominal pain, Patient Recorded Outcome: 1
  Bleeding, Patient Recorded Outcome: 0
  Dependence on medication diarrhea and pain, Patient Recorded Outcome: 0
  Diarrhea, Patient Recorded Outcome: 0
  Frequent trips to the bathroom, Patient Recorded Outcome: 0
[4]; Patient 1, Before
  Abdominal pain, Patient Recorded Outcome: 3
  Bleeding, Patient Recorded Outcome: 3
  Dependence on medication diarrhea and pain, Patient Recorded Outcome: 3
  Diarrhea, Patient Recorded Outcome: 3
  Frequent trips to the bathroom, Patient Recorded Outcome: 3
[4]; Patient 2, After
  Abdominal pain, Patient Recorded Outcome: 0
  Bleeding, Patient Recorded Outcome: 0
  Dependence on medication diarrhea and pain, Patient Recorded Outcome: 0
  Diarrhea, Patient Recorded Outcome: 0
  Frequent trips to the bathroom, Patient Recorded Outcome: 1
[4]; Patient 2, Before
  Abdominal pain, Patient Recorded Outcome: 3
  Bleeding, Patient Recorded Outcome: 3
  Dependence on medication diarrhea and pain, Patient Recorded Outcome: 3
  Diarrhea, Patient Recorded Outcome: 3
  Frequent trips to the bathroom, Patient Recorded Outcome: 3
[4]; Patient 3, After
  Abdominal pain, Patient Recorded Outcome: 1
  Bleeding, Patient Recorded Outcome: 0
  Dependence on medication diarrhea and pain, Patient Recorded Outcome: 1
  Diarrhea, Patient Recorded Outcome: 2
  Frequent trips to the bathroom, Patient Recorded Outcome: 0
[4]; Patient 3, Before
  Abdominal pain, Patient Recorded Outcome: 3
  Bleeding, Patient Recorded Outcome: 3
  Dependence on medication diarrhea and pain, Patient Recorded Outcome: 3
  Diarrhea, Patient Recorded Outcome: 3
  Frequent trips to the bathroom, Patient Recorded Outcome: 3
[4]; three IBD patients
  incidences of joint pain, skin diseases or eye related complications: no incidences of joint pain, skin diseases or eye related complications
  tolerability: well tolerated
hemorrhoids; [10]
  Bloody stool, Median Value of Patient Reported Outcome: 0
  Difficulty to sit or walk, Median Value of Patient Reported Outcome: 1
  Edema, Median Value of Patient Reported Outcome: 1
  Itching, Median Value of Patient Reported Outcome: 2
  Pain, Median Value of Patient Reported Outcome: 2
hemorrhoids; Before Treatment
  Bloody stool, Median Value of Patient Reported Outcome: 5
  Difficulty to sit or walk, Median Value of Patient Reported Outcome: 5
  Edema, Median Value of Patient Reported Outcome: 3
  Itching, Median Value of Patient Reported Outcome: 5
  Pain, Median Value of Patient Reported Outcome: 5
hemorrhoids; five hemorrhoid patients, 300 mg twice daily
  relief of rectal bleeding: all patients were relieved of rectal bleeding on the 3rd day of treatment
